In PMC9506420, “Biological Evaluation of 3-Azaspiro[Bicyclo[3.1.0]Hexane-2,5′-Pyrimidines] as Potential Antitumor Agents” (International Journal of Molecular Sciences, 2022):
Where two headings read alike, the source gives them in different places.

Assays:
Assay type in all cases: cell-based
[1] = tested on: human erythroleukemia (K562) cell line; assay: MTS antiproliferative (cytotoxicity) assay, K562; details: for SI (selectivity index), K562: Vero as reference cell line
Protocol: (§1) The cytotoxicity of synthesized 3-azaspiro[bicyclo[3.1.0]hexane-2,5′-pyrimidines] 4 against human erythroleukemia (K562), cervical carcinoma (HeLa), and T lymphocyte (Jurkat), as well as mouse colon carcinoma (CT26) and African green monkey kidney epithelial (Vero) cell lines as reference, was evaluated in vitro by the standard MTS assay for 24 and 72 h.
(§2) All the cell lines (human cervical carcinoma (HeLa), erythroleukemia (K-562), and T lymphocyte (Jurkat) as well as mouse colon carcinoma (CT26) and African green monkey kidney epithelial (Vero)) were obtained from the cell repository “Vertebrate cell culture collection” (supported by the Ministry of Science and Higher Education of the Russian Federation, agreement №075-15-2021-683, Institute of Cytology, Russian Academy of Sciences, Saint Petersburg, Russia). HeLa, Jurkat, and Vero cells were cultured in DMEM (HyClone, South Logan, UT, USA) supplemented with 10% (v/v) fetal bovine serum (Hyclone, GE Healthcare Life Sciences, Logan, UT, USA), and gentamicin (Sigma-Aldrich, St. Louis, MO, USA) at 37 °C in a humidified atmosphere with 5% CO2. K-562 and CT26 cells were grown at RPMI medium (Hyclone, GE Healthcare Life Sciences, Logan, UT, USA), with the same supplements and conditions.
(§3) To evaluate the in vitro toxicity of compounds synthesized, cells were seeded into 96-well plates at a density of 5 × 10^3 cells per well. On the next day, tested compounds were added to the wells at concentrations ranging from […], followed by incubation for 1 and 3 days. Cell proliferation was determined by adding 20 μL of MTS reagent (BioVision, Milpitas, CA, USA) stock solution per well. Each plate was incubated for 2 h at 37 °C in a humidified, 5% CO2 atmosphere. The plates were then read at 495 nm using plate spectrophotometer (Multiskan GO, Thermo Fisher Scientific, Waltham, MA, USA). All samples were measured in triplicates.

[2] = tested on: mouse colon carcinoma (CT26) cell line; assay: MTS antiproliferative (cytotoxicity) assay, CT26; details: for SI (selectivity index), CT26: Vero as reference cell line
Protocol: as §1, §2, §3

[3] = tested on: African green monkey kidney epithelial (Vero) cell line; assay: MTS antiproliferative (cytotoxicity) assay, Vero (reference)
Protocol: as §1, §2, §3

[4] = tested on: human cervical carcinoma (HeLa) cell line; assay: MTS antiproliferative (cytotoxicity) assay, HeLa; details: for SI (selectivity index), HeLa: Vero as reference cell line
Protocol: as §1, §2, §3

[5] = tested on: human T lymphocyte (Jurkat) cell line; assay: MTS antiproliferative (cytotoxicity) assay, Jurkat; details: for IC50: Homo sapiens, MTS
Protocol: (§4) The cytotoxicity of synthesized 3-azaspiro[bicyclo[3.1.0]hexane-2,5′-pyrimidines] 4 against human erythroleukemia (K562), cervical carcinoma (HeLa), and T lymphocyte (Jurkat), as well as mouse colon carcinoma (CT26) and African green monkey kidney epithelial (Vero) cell lines as reference, was evaluated in vitro by the standard MTS assay for 24 and 72 h. The results are presented in Figure 1, Figure 2, Figure 3, Figure 4 and Figure 5 (data on all, tested on K562, HeLa, and CT26 cell lines’ compounds, are given at SI, Figures S1–S3). […] Replacement of the phenyl group by either the carboxymethyl or N-isopropylcarbamoyl group has led to a significant decrease in the activity of spiro-fused cycloadducts comprising azabicyclo[3.1.0]hexane and alloxane moieties.
as §2, §3

[6] = tested on: K562, Jurkat, HeLa, CT26 and Vero cell lines; assay: MTS antiproliferative screening, all tested cell lines; details: compared with phenyl substituted adducts
Protocol: as §4, with “moieties. […]” for “moieties.”
To evaluate the in vitro toxicity of compounds synthesized, cells were seeded into 96-well plates at a density of 5 × 10^3 cells per well. […] Cell proliferation was determined by adding 20 μL of MTS reagent (BioVision, Milpitas, CA, USA) stock solution per well. […] The plates were then read at 495 nm using plate spectrophotometer (Multiskan GO, Thermo Fisher Scientific, Waltham, MA, USA). All samples were measured in triplicates.

[7] = Homo sapiens, K562, 24 h, read-out: IC50, K562, 24 h
[8] = Homo sapiens, K562, 72 h, read-out: IC50, K562, 72 h
[9] = Mus musculus, CT26, 24 h, read-out: IC50, CT26, 24 h
[10] = Mus musculus, CT26, 72 h, read-out: IC50, CT26, 72 h
[11] = Chlorocebus sabaeus, Vero, 24 h, read-out: IC50, Vero, 24 h
[12] = Chlorocebus sabaeus, Vero, 72 h, read-out: IC50, Vero, 72 h
[13] = Homo sapiens, HeLa, 24 h, read-out: IC50, HeLa, 24 h
[14] = Homo sapiens, HeLa, 72 h, read-out: IC50, HeLa, 72 h

Row | SMILES | IC50 [1, 7] | IC50 [1, 8] | SI (selectivity index), K562 ([1]; K562) | SI (selectivity index), CT26 ([2]; CT26) | IC50 [2, 9] | IC50 [2, 10] | IC50 [3, 11] | IC50 [3, 12] | SI (selectivity index), HeLa ([4]; HeLa) | IC50 [4, 13] | IC50 [4, 14] | other results
1 | C[C@@H]1NC2(C(=O)NC(=O)NC2=O)[C@]2(c3ccccc3)[C@@H](c3ccccc3)[C@]12c1ccccc1 [Compound 4b] | 25 ± 5 µM | 9 ± 2 µM | 2.4 | 1.0 | 30 ± 2 µM | 21 ± 2 µM | 55 ± 7 µM | 21 ± 2 µM | 1.2 | 34 ± 2 µM | 18 ± 2 µM | 
2 | COc1cccc2c1C(=O)c1c(O)c3c(c(O)c1C2=O)C[C@@](O)(C(=O)CO)C[C@@H]3O[C@H]1C[C@H](N)[C@H](O)[C@H](C)O1 [Doxorubicin, reference compound] |  |  | 2.0 | 0.5 |  |  |  |  | 4.8 |  |  | IC50 ([1]; Homo sapiens, K562, MTS, 24 h, read-out: IC50, K562, 24 h): 16 ± 3 µM; IC50 ([1]; Homo sapiens, K562, MTS, 72 h, read-out: IC50, K562, 72 h): 1.2 ± 0.3 µM; IC50 ([2]; Mus musculus, CT26, MTS, 24 h, read-out: IC50, CT26, 24 h): 19 ± 3 µM; IC50 ([2]; Mus musculus, CT26, MTS, 72 h, read-out: IC50, CT26, 72 h): 5.5 ± 0.3 µM; IC50 ([3]; Chlorocebus sabaeus, Vero, MTS, 24 h, read-out: IC50, Vero, 24 h): 13 ± 2 µM; IC50 ([3]; Chlorocebus sabaeus, Vero, MTS, 72 h, read-out: IC50, Vero, 72 h): 2.4 ± 0.4 µM; IC50 ([4]; Homo sapiens, HeLa, MTS, 24 h, read-out: IC50, HeLa, 24 h): 4 ± 1 µM; IC50 ([4]; Homo sapiens, HeLa, MTS, 72 h, read-out: IC50, HeLa, 72 h): 0.5 ± 0.1 µM
3 | O=C1NC(=O)C2(NC[C@@]3(c4ccccc4)[C@H](c4ccccc4)[C@@]23c2ccccc2)C(=O)N1 [Compound 4a] | 47 ± 8 µM | 14 ± 1 µM | 1.0 | 0.3 | 64 ± 7 µM | 50 ± 7 µM | 50 ± 14 µM | 14 ± 2 µM | 0.2 | 125 ± 18 µM | 70 ± 4 µM | IC50 ([5]; 24 h, read-out: IC50, Jurkat, 24 h): 24 ± 2 µM; IC50 ([5]; 72 h, read-out: IC50, Jurkat, 72 h): 19 ± 5 µM; SI (selectivity index), Jurkat ([5]; Vero as reference cell line): 0.8; relative antiproliferative activity (structure-activity comparison) [6]: less active
4 | N.N.[Cl][Pt][Cl] [Cisplatin, reference compound] |  |  | 0.3 | 0.8 |  |  |  |  | 0.7 |  |  | IC50 ([1]; MTS, 24 h, read-out: IC50, K562, 24 h): 46 ± 8 µM; IC50 ([1]; MTS, 72 h, read-out: IC50, K562, 72 h): 14 ± 2 µM; IC50 ([2]; MTS, 24 h, read-out: IC50, CT26, 24 h): 24 ± 4 µM; IC50 ([2]; MTS, 72 h, read-out: IC50, CT26, 72 h): 5 ± 1 µM; IC50 ([3]; MTS, 24 h, read-out: IC50, Vero, 24 h): 14 ± 1 µM; IC50 ([3]; MTS, 72 h, read-out: IC50, Vero, 72 h): 4 ± 1 µM; IC50 ([4]; MTS, 24 h, read-out: IC50, HeLa, 24 h): 16 ± 4 µM; IC50 ([4]; MTS, 72 h, read-out: IC50, HeLa, 72 h): 6 ± 1 µM
